Data reported in PMC9410094 (Marine Drugs, 2022).
Converted amounts (≈) assume the structure as drawn. Positions of bridges follow the written chain, without caps; N, C: chain ends. Residues, ends and D or L forms follow the SMILES beside them.

Experiments:
E. coli MDR Cl 1057 = experiment: Resistance induction by serial passages; assay type: cell-based; settings: E. coli MDR Cl 1057, 0.9% NaCl-enriched Mueller–Hinton medium
Method: One of them involves a series passage with suspension of a test strain and liquid medium containing an antibacterial agent at concentrations near the MIC, which progressively increases during the experiment until resistant mutants are enriched. Bacteria that grew at the highest concentration of drug are used in the final step of the test that determines the final MIC value [18].
The ability of peptides to induce bacterial resistance was assessed by the method of two-fold serial dilutions; this test was repeated every day. […] Next, on the second day, 2 μL of the bacterial suspension was taken from the well containing the sub-inhibitory concentration of the drug as close as possible to the MIC and diluted with 1 mL of the same media.

[1] = system: P. aeruginosa PAO1 mature biofilms; experiment: Effect on mature biofilms, viability by MTT; settings: P. aeruginosa PAO1 pre-formed biofilm, 16 µM, 2-h exposure
Method: Biofilm viability was measured by tetrazolium salt reduction (right panel). Values are presented as means ± the standard deviation (SD) of three independent experiments.
The effect of peptides on pre-formed biofilms was evaluated as follows. Biofilms were grown on a 96-well plate at 32 °C for 24 h and stirred at 120 rpm to ensure biofilm formation primarily on the wall of the wells. […] Bacterial survival in the biofilms after 2-h exposure was evaluated via a MTT assay after incubation with a tested peptide. Then, wells were rinsed with sterile water, treated with an MTT solution (Sigma, Kawasaki, Kanagawa, Japan) in PBS, and incubated for 4 h at 37 °C. Next, the medium was removed. The resulting formazan crystals were dissolved in a mixture of EtOH and DMSO (1:1) for 10 min. The optical density of the solution was measured at 570 nm. Bacterial survival was calculated as percent relative to samples without antimicrobial agent. All data were obtained from at least three independent experiments in 3 repetitions.

E. coli 3421/E19 = experiment: Neutropenic mice peritonitis model; assay type: in vivo, BALB/c mice; settings: for Bacterial burden in mice blood (in words) / Reduction of the CFU level in peritoneal fluid (PF): neutropenic BALB/c mice, CFU 5 h after treatment; for Bacterial burden in mice blood (in words): n = 5, i.p. infection, single i.v. dose 1 h post-infection (AMPs 10 mg/kg, polymyxin B 5 mg/kg); for Reduction of the CFU level in peritoneal fluid (PF): n = 5, single i.v. dose (AMPs 10 mg/kg, polymyxin B 5 mg/kg)
Method: Immune-deficient mice were inoculated intraperitoneally (i.p.) with bacterial suspension. Antimicrobial agent was administered 1 h post-infection, and colony counts in blood and peritoneal fluid (PF) were determined 5 h later.
(A) The mice peritonitis model. […] Horizontal bars indicate means ± SD.
Food and water were provided ad libitum.
CFU counts were determined from blood and peritoneal fluid (PF) 5 h after treatment. The mice were euthanized by CO2 asphyxiation and blood was collected by axillary cut down. A total of 2 mL sterile saline was injected i.p. and the abdomen gently massaged before it was opened, fluid sampled with a pipette, serially diluted and placed on Endo agar supplemented with 20 µg/mL of tetracycline for CFU identification.

P. aeruginosa PAO1 = experiment: Inhibition of biofilm formation, crystal violet; assay type: cell-based; settings: 24 h, LB, 32 °C
Text: Such an adaptive and survival mechanism is mediated by biofilms, which constitutes the community of sessile bacteria embedded within the self-produced extracellular polymeric substance (EPS) that defends them from chemical, biological, and physical stress; it also […] foreign invaders. Besides the fact that EPS decreases concentration of antibiotics, bacteria inside biofilm are characterized by a reduced rate of cell divisions, an increased expression of stress response genes, an occurrence of persistent cells, and exchange of resistance genes leading to a broader spread of tolerant biofilm-growing bacteria. For the treatment of biofilm-associated infections a high concentration of antibiotics is required that also increases toxicity toward human cells. Antimicrobial peptides are able to act on certain stages of biofilm formation and various molecular targets and are considered as promising candidates for the development of new antibiofilm agents. […] Bacterial biomass amount was evaluated using the standard crystal violet assay over a 24 h incubation period with each drug. […]
Masses of biofilms were evaluated by dying with 0.1% CV. […]
The ability of peptides to influence the formation of biofilms was evaluated by the method of two-fold serial dilutions in a liquid nutrient medium. […] Further, the extracts were transferred to a new plate and absorption was measured at 570 nm. […]

human red blood cells = assay type: cell-based
Method: Figure 4 (A) Hemolytic effect on human red blood cells after 2 h incubation (hemoglobin release assay). (B) Cytotoxicity toward transformed human embryonic kidney cells after 20 h incubation (MTT-assay). The positive control used was 0.1% Triton X-100 and sterile PBS as a negative control. Melittin was used as an additional positive control. The data are presented as the mean ± SD of three independent experiments.
The hemolytic activity of compounds was performed using human red blood cells (hRBS) of healthy donor. Fresh blood was centrifuged to separate the erythrocyte fraction for 15 min at 500 g and washed three times with cold phosphate-buffered saline (PBS) (pH 7.4), after which an 8% (v/v) suspension of erythrocytes in PBS was prepared. Then, 50 µL of erythrocyte suspension was added to the test peptides, previously were dissolved in 50 µL of 0.1% BSA. The plate was incubated for 1.5 h at 37 °C and 950 rpm on the plate thermoshaker. After incubation, the plates were centrifuged for 15 min at 1000 g to settle intact erythrocytes. Next, aliquots of the supernatant were transferred to another plate to measure the amount of hemoglobin release by the absorbance of the solution at 405 nm. As “zero lysis” we used the supernatant obtained after centrifugation of erythrocytes incubated in a PBS solution without the addition of a peptide. As “100% lysis”, we used the supernatant obtained after centrifugation of erythrocytes incubated in a 0.1% Triton X-100, causing their complete lysis. The assays were conducted three times. The quantitative data were presented as an average means with standard deviations. Hemolysis(%)=OD405(compound)−OD405(zerolysis)/OD405(100%lysis)−OD405(zerolysis)×100%

E. coli ML-35p = system: E. coli ML-35p
Method: Initially, antimicrobial activity of abarenicin and UuBRI-21 was evaluated against the reference strain of E. coli (ML-35p) under various conditions (Table 1). Minimal inhibitory concentrations (MICs) were determined via two-fold serial dilutions in 96-well polystyrene plates. Serial dilutions were made in 0.1% bovine serum albumin (BSA) to minimize the absorption of peptides on the surface of plate wells. Mueller–Hinton broth (MHB) supplemented with 0.9% NaCl was used as the standardized medium.
(§1) Bacterial cultures were grown in MHB at 37 °C until the culture reached an optical density OD600 of 1.0 and diluted with the broth so that to reach a final cell concentration of 10^6 CFU/mL. Then 50 μL of the test culture were added to 50 μL of aqueous solutions of the peptides, previously diluted in 0.1% sterilized bovine serum albumin (BSA) to reduce non-specific binding of the peptides to the surface of the plates. Next, the plate was incubated for 24 h at 37 °C and 950 rpm on the plate thermoshaker (Biosan). The values of the minimum inhibitory concentrations (MIC) were determined as the minimum concentration of the peptide, at which there is no culture growth. The results were expressed as the median values of three independent experiments performed in triplicate.

E. coli ATCC 25922 [2] = assay type: cell-based; settings: MHB + 0.9% NaCl, 0.1% BSA, 24 h, 37 °C; median of three independent experiments
Gram-negative bacteria = experiment: Geometric mean of MICs, Gram-negative panel; assay type: cell-based; settings: geometric mean (GM) of MICs against the 14 Gram-negative strains of Figure 2
Method: as §1, with “The antimicrobial activity of the peptides was determined via the method of two-fold serial dilutions in sterile 96-well flat-bottom polystyrene microplates (Eppendorf #0030730011) in Mueller–Hinton broth (MHB, Sigma, Kawasaki, Kanagawa, Japan) supplemented with 0.9% NaCl. Bacterial” for “Bacterial”

Gram-positive bacteria = assay type: cell-based; settings: 24 h
Method: as §1, with “The antimicrobial activity of the peptides was determined via the method of two-fold serial dilutions in sterile 96-well flat-bottom polystyrene microplates (Eppendorf #0030730011) in Mueller–Hinton broth (MHB, Sigma, Kawasaki, Kanagawa, Japan) supplemented with 0.9% NaCl. Bacterial” for “Bacterial”

[3] = RP-HPLC retention time as measure of hydrophobicity; assay type: physicochemical; settings: chromatographic, semipreparative RP-HPLC, C18 column, linear gradient 5 to 80% (v/v) acetonitrile in water with 0.1% TFA within 50 minutes; used as measure of hydrophobicity
Method: Table S1. Characteristics of the recombinant AMPs.
1 Mean Kyte–Doolittle hydrophobicity index (GRAVY) was calculated using the Expasy ProtParam tool. The maximum and minimum values of this index are +4.5 and -4.5 for poly-Ile and poly-Arg sequences, respectively. 2 Retention times were measured using semipreparative reversed-phase high-performance liquid chromatography (RP - HPLC) on a C18 column with a linear gradient from 5 to 80% ( v/v) acetonitrile in water containing 0.1% trifluoroacetic […]
acid (TFA) within 50 minutes. […]

in vitro = settings: male, human, 25% fresh human serum, pH 7.4
Method: After incubation, serum proteins were selectively precipitated from the mixture by adding 10% TFA in the presence of 3 M urea. […] Two independent experiments in duplicate were performed for each peptide.

[4] = 25% human serum in PBS (pH 7.4) from healthy donor; settings: 37 °C, up to 24 h
E. coli ATCC 25922 [5] = experiment: Mice septicemia model, survival; settings: BALB/c mice, n = 8, E. coli ATCC 25922 i.p. with 2.5% mucin; peptide i.p. 10 mg/kg at 1 and 4 h post-infection; 7 days
Method: Ciprofloxacin (the single dose of 10 mg/kg) and saline were used as the positive and negative controls, respectively. […] Mice were controlled once daily for their health status during 7 post-infection days.
Then, we examined an efficacy of AMPs in the mice septicemia model using 8 animals in a group (Figure 10B).
Experiments were performed with female 8–10-week-old BALB/c mice (22–24 g, “Andreevka” laboratory animal nursery FMBA, Russia). […] All animal experiments were performed at the State Research Center for Applied Microbiology and Biotechnology (SRCAMB) in Obolensk, Russia. The animals were housed in groups of 5 in polycarbonate cages. Food and water were provided ad libitum.
A total of 4 groups with 8 animals were used. The first group received ciprofloxacin (Sigma, Kawasaki, Kanagawa, Japan) administered i.p. once (1 h post-infection) at a dose of 10 mg/kg. The second group received saline (as a vehicle control) administered i.p. once (1 h post-infection). […] Survival was monitored for 7 days. After that survived animals were euthanized by CO2 asphyxiation.

Molecule	Initial MIC in resistance induction experiment (E. coli MDR Cl 1057) [µM]	Residual viability of bacteria in mature biofilm [1]	Bacterial burden in mice blood (in words) (E. coli 3421/E19)	Reduction of the CFU level in peritoneal fluid (PF) (E. coli 3421/E19)	Inhibition of biofilm formation (in words) (P. aeruginosa PAO1)	Hemolytic activity (in words) (human red blood cells)	Fold reduction of antibacterial activity in the presence of serum (E. coli ML-35p; MHB + 0.9% NaCl with 25% FBS versus without) [fold]	Minimum Inhibitory Concentration, MHB + 0.9% NaCl + 25% FBS (E. coli ML-35p; Table 1, medium with 25% fetal bovine serum) [µM]	Minimum Inhibitory Concentration, MHB + 0.9% NaCl (E. coli ML-35p; Table 1, without FBS, dilutions in 0.1% BSA) [µM]	Minimum inhibitory concentration (MIC): E. coli ATCC 25922 (E. coli ATCC 25922 [2]) [µM]	Minimum inhibitory concentration (MIC): Gram-negative Geometric mean (Gram-negative bacteria) [µM]	Minimum inhibitory concentration (MIC): Gram-positive Geometric mean (Gram-positive bacteria) [µM]	RP-HPLC Retention Time [3] [min]	remaining at 2 h, 0.12 mg/mL (in vitro) [%]	cleaved bond [4]	Therapeutic efficacy (survival) after one-week experiment (E. coli ATCC 25922 [5]) [%]	Efficacy in the neutropenic peritonitis model (in words) (E. coli 3421/E19; single i.v. dose of 10 mg/kg, E. coli 3421/E19)
polymyxin B [reference compound]	0.125	about 20%	complete reduction	~ 5 log	modest inhibition of biofilm	–	–	–	–	–	–	–	–	–	–	–	–
CC[C@H](C)[C@@H]1NC(=O)[C@H](CCCNC(=N)N)NC(=O)[C@H](C(C)C)NC(=O)CNC(=O)[C@H](CC(N)=O)NC(=O)[C@H](CCCNC(=N)N)NC(=O)[C@H](CC(C)C)NC(=O)[C@H](Cc2ccc(O)cc2)NC(=O)[C@@H]2CSSC[C@H](NC1=O)C(=O)N[C@@H](Cc1ccc(O)cc1)C(=O)N[C@@H](CCCNC(=N)N)C(=O)N[C@@H](CCCNC(=N)N)C(=O)N[C@H](C(=O)N[C@@H](CC(N)=O)C(=O)O)CSSC[C@H](NC(=O)[C@H](Cc1ccc(O)cc1)NC(=O)CN)C(=O)N[C@@H](Cc1ccccc1)C(=O)N[C@@H]([C@@H](C)O)C(=O)N[C@@H](C)C(=O)N2 [Abarenicin] (H-GYCFTACYLRNGVRICYRRCN-OH; disulfide 3-20, 7-16)	–	–	–	–	–	moderate hemolytic activity	4	1	0.25	0.25	0.45 (≈ 1.14 µg/mL)	2.52 (≈ 6.37 µg/mL)	25.77	> 90	–	–	–
GYCFTACYLRNGVRICYRRCN	–	–	–	–	–	–	–	–	–	–	–	–	–	–	glycine-Y, major	–	–
CC[C@H](C)[C@@H]1NC(=O)[C@H](CCCNC(=N)N)NC(=O)[C@H](C(C)C)NC(=O)CNC(=O)[C@H](CC(N)=O)NC(=O)[C@H](CCCNC(=N)N)NC(=O)[C@H](CCCNC(=N)N)NC(=O)[C@H](C)NC(=O)[C@@H]2CSSC[C@H](NC1=O)C(=O)N[C@@H](Cc1ccc(O)cc1)C(=O)N[C@@H](CCCNC(=N)N)C(=O)N[C@@H](CCCNC(=N)N)C(=O)N[C@H](C(=O)N[C@@H](CC(N)=O)C(=O)O)CSSC[C@H](NC(=O)[C@H](Cc1ccc(O)cc1)NC(=O)CN)C(=O)N[C@@H](Cc1ccccc1)C(=O)N[C@@H]([C@@H](C)O)C(=O)N[C@@H](C)C(=O)N2 [Ap9]	–	about 20%	complete reduction	~ 5 log	more effective in biofilm prevention at sub-inhibitory concentration	insignificant toxicity toward human erythrocytes	–	–	–	–	0.26 (≈ 0.645 µg/mL)	3.17 (≈ 7.86 µg/mL)	25.37	–	–	100	effective
